Results reported in patent US20260167629A1, “NOVEL INDAZOLE DERIVATIVE OR PHARMACEUTICALLY ACCEPTABLE SALT THEREOF, AND USE THEREOF” (KOREA UNIVERSITY RESEARCH AND BUSINESS FOUNDATION, priority 2022, published 2026).

Legend:
[1] = test system: cleaved caspase-3, cleaved caspase-7, PARP in BT474 cell line; assay: Western blotting of apoptosis-related proteins, BT474; type: cell-based; conditions: BT474, 10 μM, 72 hours; for amounts of cleaved caspase-3 and cleaved caspase-7: compared to the control group
Procedure: (§1) To investigate the mechanism of cell death by compound 18c (formula 1-16) and compound 11k (formula 1-7), the activation of apoptosis-related factor caspase family members was determined through western blotting.
(§2) To perform western blotting, BT-474 and JIMT-1 cell lines were treated with control (DMSO), compound 18c, and compound 11k at concentrations of 10 μM each for 72 hours, and then lysed in lysis buffer (30 mM NaCl, 0.5% Triton X-100, 50 mM Tris-HCl; pH 7.4) containing phosphatase and protease inhibitors. The proteins present in the supernatant were harvested. The protein concentration was measured using a Bradford protein assay kit, and 30 μg of protein was taken equally from each experimental group. These proteins were electrophoresed on SDS-Polyacrylamide gels (8-15%), and electrically transferred to a nitrocellulose membrane. The membrane was reacted with primary antibodies [pro PARP (1:1000), cleaved PARP (1:2000), cleaved caspase-3 (1:1000), cleaved caspase-7 (1:1000), β-actin (1:5000)] diluted in 5% bovine serum albumin (BSA) at 4° C. for 24 hours, followed by a secondary antibody, horseradish peroxidase (HRP)-conjugated rabbit IgG (1:3000) for 2 hours at room temperature. The signal intensity of the above proteins was checked by color development using an Enhanced Chemiluminescence Kit and x-ray film.

[2] = test system: JIMT-1 breast cancer cell line; assay: Flow cytometry DNA content (PI), cell cycle arrest and cell death, JIMT-1; type: cell-based; conditions: JIMT-1, 5 and 10 μM, 72 hours, flow cytometer
Procedure: (§3) The degree of cancer cell death by the indazole derivative of the present disclosure was measured by analyzing DNA content using a flow cytometer. Cells were treated with compound 18c (formula 1-16) and compound 11k (formula 1-7) at concentrations of 0 (DMSO), 5, and 10 μM for 72 hours, and then the cells were harvested. Thereafter, the cells were fixed with 95% ethanol containing 0.5% Tween-20 for 24 hours, and stained with propidium iodide (PI, 50 μg/mL) and RNase (50 μg/mL) for 30 minutes. Afterwards, the degree of cancer cell death was analyzed using a flow cytometer.
(§4) In general, the cell cycle is divided into G1 (cell growth phase)—S(cell replication phase)—G2/M (cell division phase) according to the content of intracellular DNA. […] The results of this cell death within the cell cycle are manifested by the Sub-G1 region, and the percentage of Sub-G1 induced by the indazole derivative of the present disclosure is shown numerically in FIGS. 5B and 6B.

[3] = test system: cleaved caspase-3, cleaved caspase-7, PARP in JIMT-1 cell line; assay: Western blotting of apoptosis-related proteins, JIMT-1; type: cell-based; conditions: JIMT-1, 10 μM, 72 hours; for amounts of cleaved caspase-3 and cleaved caspase-7: compared to the control group
Procedure: as §1, §2

[4] = test system: JIMT-1 breast cancer cell line xenograft; assay: Tumor growth in xenograft mouse model transplanted with JIMT-1; type: in vivo, Balb/c nude mice; conditions: intraperitoneally, 30 mg/kg compound 18c or 20 mg/kg compound 11k; for tumor volume / tumor weight: compared to the control group
Procedure: This experiment was performed in an in vivo environment using a xenograft mouse model transplanted with the JIMT-1 breast cancer cell line.
6-week-old mice (Balb/c nude mice) were purchased and raised in an environment where they could freely access food and water. The mice were acclimated for more than 7 days, and then were transplanted with tumor cells. Tumor cells were injected subcutaneously into the mammary gland tissue of JIMT-1 breast cancer cells at a density of 3×10^6 cells/mL per individual, and when the tumor reached a size of 50 to 100 mm^3, the indazole derivative of the present disclosure was administered intraperitoneally, and the tumor growth was measured. The experimental groups were treated with either 30 mg/kg of compound 18c (formula 1-16) or 20 mg/kg of compound 11k (formula 1-7), and tumor volume, tumor weight, body weight, and the like were measured every 3 to 4 days from the time of administration until the end of the study.

[5] = test system: BT474 breast cancer cell line; assay: Flow cytometry DNA content (PI), cell cycle arrest and cell death, BT474; type: cell-based; conditions: BT474, 5 and 10 μM, 72 hours, flow cytometer
Procedure: as §3, §4

[6] = test system: Hsp90 clients in BT474 cell line; assay: Western blotting of Hsp90 clients, BT474; type: cell-based; conditions: BT474, 10 μM, 72 hours
Procedure: as §2
Western blotting was used to investigate whether Hsp90 inhibitors, compound 18c (formula 1-16) and compound 11k (formula 1-7), could downregulate the expression and activity (phosphorylation) of HER2 and HER3, which are representative clients of Hsp90, in BT474 and JIMT-1 cell lines. The expression of Akt, MEK, ERK, Bcl-2, Cyclin D1, and Survivin, which are key factors for cell survival as Hsp90 clients, was also investigated. The western blotting was performed by the method that was used in Experimental Example 2.3.
The BT474 and JIMT-1 cell lines were treated with compound 18c and compound 11k at a concentration of 10 μM for 72 hours.

[7] = test system: JIMT-1 cell line; assay: MTS cell viability assay in JIMT-1 cell line; type: cell-based; conditions: Homo sapiens, JIMT-1, 72 hours
Procedure: The control group was treated with DMSO as an untreated group (0 μM) of the indazole derivative of the present disclosure.
(§5) Specifically, cells were attached to 96 well plates for 24 hours, and then treated with the indazole derivatives for 72 hours. Thereafter, the cells were chromogenized with MTS for 4 hours, and the absorbance was measured at 490 nm using a Spectramax Plus384 microplate analyzer.
(§6) HER2 positive breast cancer (HER2+BC) cell lines, BT474 (cell seeding numbers: 2.4 (BT474)×10^4 cells/wells (confluency≥50%)) sensitive to trastuzumab and JIMT-1 (cell seeding numbers: 1.0 (JIMT-1)×10^4 cells/wells (confluency>30%)) resistant to trastuzumab were used in the experiment.
(§7) In this case, the cell lines were treated with the benzopyran derivative at a concentration of 10 μM for 72 hours and the cell lines were treated with the indazole derivative at a concentration of 10 μM for 72 hours, and then the cell viability was measured.

[8] = test system: BT474 cell line; assay: MTS cell viability assay in BT474 cell line; type: cell-based; conditions: Homo sapiens, BT-474, BT474, 72 hours
Procedure: as §5, §6, §7

| Compound | cleaved-PARP (89 kDa) [1] | amounts of cleaved caspase-3 and cleaved caspase-7 [1] | G2/M phase of the cell cycle [2] | cell death (Sub-G1 population) [2] | cleaved-PARP (89 kDa) [3] | amounts of cleaved caspase-3 and cleaved caspase-7 [3] | tumor size (visual inspection) [4] | tumor volume [4] | tumor weight [4] | G2/M phase of the cell cycle [5] | cell death (Sub-G1 population) [5] | expression of HER2 and HER3 [6] | expression of activated forms phospho-HER2 and phospho-HER3 [6] | expression of cell proliferation factors Akt, MEK, ERK, Bcl-2, Cyclin D1, and Survivin [6] | IC50 [7] [µM] | IC50 [8] [µM] |
| --- | --- | --- | --- | --- | --- | --- | --- | --- | --- | --- | --- | --- | --- | --- | --- | --- |
| COc1c(C(=O)Nc2ccc3c(C)nn(CCC4CCN(C)CC4)c3c2)ccc2c1C=CC(C)(C)O2 [compound 11k, 5-Methoxy-2,2-dimethyl-N-(3-methyl-1-(2-(1-methylpiperidin-4-yl)ethyl)-1H-indazol-6-yl)-2H-chromene-6-carboxamide] | increase | significantly increased | arrested the G2/M phase | significantly induced cell death | increase | significantly increased | reduced by more than half | significantly reduced | significantly reduced | arrested the G2/M phase | significantly induced cell death | decreased | significantly reduced | inhibited the expression | 4.06 | 8.48 |
| COCCn1nc(NC(=O)c2ccc3c(c2OC)C=CC(C)(C)O3)c2ccccc21 [compound 18c, 5-Methoxy-N-(1-(2-methoxyethyl)-1H-indazol-3-yl)-2,2-dimethyl-2H-chromene-6-carboxamide] | increase | significantly increased | arrested the G2/M phase | significantly induced cell death | increase | significantly increased | reduced by more than half | significantly reduced | significantly reduced | arrested the G2/M phase | significantly induced cell death | decreased | significantly reduced | inhibited the expression | 4.6 | 4.98 |
